Results published in a melting point compilation (Tetko et al.; mined from patent text by program, amines drawn as free bases though some values may be those of a salt).
Residues, ends and D or L forms follow the SMILES beside them. *: point of attachment. Boc = CC(C)(C)OC(=O)*; NHNH2 = NN*

melting point [°C] | SMILES
144 to 148 | CCS(=O)(=O)CCON=Cc1nn(-c2c(Cl)cc(C(F)(F)F)cc2Cl)c(N)c1S(C)=O (stereo not given)
133 to 134 | Cc1c(-c2ccccc2)oc2c(C(O)CCCO)cccc2c1=O (stereo not given)
94 to 97 | CCOC(=O)c1c(-c2ccc(F)cc2)cc(-c2ccccc2Cc2ccccc2)nc1C(C)C
95 to 97 | CN(C)C(=N)CSc1nnc(S)s1
165 to 166 | CCc1c(OC)nc(OC)nc1C(=O)c1cc(C)cc(C=CC#N)c1
160 to 162 | COC1CN(c2ccc(N3C[C@H](CNC(C)=O)OC3=O)cc2F)C1
158 to 159 | O=C1OC(c2ccc(Cl)c(S(=O)(=O)Cl)c2)c2ccccc21 (stereo not given)
93.5 to 95.5 | CN(c1ccccc1)c1nc(Cl)nc(N2CCOCC2)n1
113 to 115 | CCNC(=S)NNC(=O)c1ccc(N)cc1
159 to 161 | CCOC(=O)C(N)Cc1c(OCC)noc1C(=O)O (racemic)
97.6 | Clc1ccc(C(Cn2ccnc2)C2CCCC2)c(Cl)c1 (stereo not given)
162 to 164 | CC1=C(CC2=NCCN2C)CCc2ccccc21
210 | COc1ccc(N2CCN(c3ccc(-n4cnn(C(C)C)c4=O)cc3)CC2)cc1
139 to 140 | COC(=O)c1ccc(OC)c(/C=C/C(=O)N(C(C)C)C(C)C)c1
84 to 86 | Clc1csc(-c2cccnc2)n1
94 | CNC(=S)NS(=O)(=O)c1cc(CCNC(=O)/C=C/c2cccs2)ccc1OCc1ccccc1
119 to 121 | C=CCOC(=O)c1ccc(S(C)=O)c([N+](=O)[O-])c1 (stereo not given)
147 to 148 | Cc1cc(C)cc(Sc2c(C(C)C)c(=O)[nH]c(=O)n2CC2=CCC(CO)C2)c1 (stereo not given)
197 to 198 | O=S(=O)(Nc1ccc2c(OCc3csc(-c4ccc(C(F)(F)F)cn4)n3)cccc2c1)C(F)(F)F
174 to 176 | N#Cc1ccc(C=NO)cc1
149 to 151 | COC(=O)c1ccc(Cc2cn(C)c3ccc(CC(C)C(=O)O)cc23)c(OC)c1 (stereo not given)
163 to 164 | CC1(C)C(=O)N(c2ccc([N+](=O)[O-])c(C(F)(F)F)c2)C(=O)N1CCCCCN1C(=O)N(c2ccc([N+](=O)[O-])c(C(F)(F)F)c2)C(=O)C1(C)C
254 | O=C(Nc1ccc2ccc(Cl)nc2n1)c1ccsc1
100 to 105 | COc1cc(C(C)=O)ccc1OCCCN1CCCC(C(O)(c2ccc(F)cc2)c2ccc(F)cc2)C1 (stereo not given)

melting point [°C] | SMILES
62 | BrCCOc1cccc2c1SCCC2
225 | O=C1O[C@@H](Cn2ccnn2)CN1c1ccc(-c2ccc(C3=NOC(C4(O)CCCC4)C3)nc2)c(F)c1 (stereo not given in full)
172 | CNC(=O)C(NC(=O)c1ccc(F)cc1C(F)(F)F)C(O)CSc1cccc(F)c1 (stereo not given)
83 to 85 | CC(=O)OCC1OC(n2cc(C(Br)=CBr)c(=O)[nH]c2=O)C(OC(C)=O)C1OC(C)=O (stereo not given)
85 to 87 | CCCC1(CCC)C(=O)N(C(C)(C)C)CC(C)(C)N1OC(C)(C)C#N
136 to 138 | COc1c2c(c(OC)c(OC)c1OC)CC(CCCCOc1ccc(C(=O)O)cc1)C2
141 | CCOC(=O)C1=C(C)NN=C(CC)C1c1ccc([N+](=O)[O-])cc1 (stereo not given)
157 to 160 | Cn1cc(C(=O)NCc2ccc(Cl)cc2)c(=O)c2cc(CCCCO)oc21
170 to 172 | O=C(Nc1ccc(Oc2ccccc2F)nc1)N1CCc2ccccc2CC1
191 to 192 | NC(=O)c1nnn(Cc2ccccc2)c1NC(=O)c1ccccc1
291 to 294 | COc1cc(OC)c2c(=O)c3c(Cl)ccc([N+](=O)[O-])c3[nH]c2c1
152 to 161 | CCCC(=O)C(=O)C(CC1CCCCC1)NC(=O)C(CC(C)C)NC(=O)C(Cc1ccccc1)NC(=O)C1CCCC1 (stereo not given)
241 to 243 | O=C1c2ccccc2-c2c1c1ccccc1c(=O)n2CCCNS(=O)(=O)c1ccc(Br)cc1
205 to 208 | COc1ccc(-c2nc(N)n3nc(-c4ccco4)nc3n2)cc1OC
147 to 153 | CN(C)c1ccc(-c2noc([C@H]3CCCN(C(=O)c4ccc(F)cc4)C3)n2)cc1
245 to 246 | FC(F)(F)c1nnc(Cl)c2cc3ccccn3c12
263 to 266 | Nc1ncnc2c1ncn2CC/C=C/P(=O)(O)O
101 to 103 | CN(C)CC(C)(C)Cn1ccc(-c2ccc(F)cc2)c1-c1ccncc1
151 to 154 | COc1c(CS(C)(=O)=O)cnc2ccccc12
138 to 140 | COc1cc(N2CCN(Cc3ccccc3)CC2)c2ncccc2c1Cl
87.2 | CC1(C)COC(c2ccc(CC34CCCCN3C(=O)N(c3cc(Cl)cc(Cl)c3)C4=O)cc2)=N1 (stereo not given)
98 to 100 | CNc1cc2c(cc1Cl)CCN(C)C[C@@H]2c1ccccc1
259 to 260 | O=C(NC1CCN(CCCOc2ccccc2C(=O)Nc2nnn[nH]2)CC1)c1ccccc1
182 to 183 | OCc1cnc2sc3c(n12)CCCC3

melting point [°C] | SMILES
203 to 204 | C=CC1CN(c2ncc(C(=O)N(C)c3cccc(C(F)(F)F)c3)c(N)n2)C(=O)N1 (stereo not given)
77 to 78 | Clc1ncccc1OCCOc1ccccc1
240 | CC(=O)Oc1ccc(-c2cnc(-c3ccccc3)[nH]c2=O)cc1OC(C)=O
> 300 | CCOC(=O)Nc1cc2nc(O)c(O)nc2cc1Cl
158 to 160 | COc1cc(Cc2nccc3c(OCc4ccccc4)cc(OCc4ccccc4)cc23)cc(OC)c1OC
140 to 142 | CNCC1Cc2cc(F)cc(-c3c(Cl)cccc3Cl)c2O1 (stereo not given)
174 to 176 | CC(C)CC(NC(=O)OC(C)(C)C)C(=O)NCC(=O)NCC(=O)NC(C)C(=O)NCC(=O)NN (stereo not given) (Boc-LGGAG-NHNH2; configuration not given here)
115 to 118 | NC(=O)CCC1CN(c2ccc3c(c2)OCC2CN(C(=O)CO)CCN32)C(=O)O1 (stereo not given)
109 to 110 | O=C1CCN(Cc2ccccc2O)CC1C(c1ccccc1)c1ccccc1 (stereo not given)
163 to 164 | CC(C)(C)c1cc(OCc2cccc(-c3nnn[nH]3)c2)cc(C(C)(C)C)c1O
186 to 189 | O[C@H](COc1cccc2[nH]ccc12)CN1CCC(c2c[nH]c3c(Cl)cccc23)CC1
188 | CS(=O)(=O)c1ccc(-c2nn(Cc3ccccc3)c(=O)cc2-c2ccc(F)cc2)cc1
216 to 218 | C1=C(/C=C/c2ccsc2)CCN(Cc2nc3ccccc3[nH]2)C1
126 | CC(C)(C)[Si](C)(C)Oc1ccc(NC(=O)CCCl)cc1
161 to 162 | O=C1NC(c2ccccc2)(c2ccccc2)C(=O)N1CCl
148 to 150 | COC(=O)c1cc(I)cc2c1Nc1ccccc1C2
120 to 121 | CC(C)c1nc(COCc2ccccc2)n(CC2CC2)c1Sc1cc(Cl)cc(Cl)c1
211 to 213 | Cc1[nH]c(=O)n(-c2cc(C(=O)OC(C)C)c(Cl)cc2F)c(=O)c1I
209 to 211 | O=C1CC(c2cccc(-n3ccnc3)c2)=Nc2cc(Cl)c(-c3ccc(F)cc3)cc2N1
132 to 133 | CC(=O)NCCc1ccc(CCC(=O)O)cc1
104 to 105 | COc1cc(C(=O)C#CCOC(C)=O)cc(OC)c1OC
243 to 245 | Cc1cccc(Cl)c1NC(=O)NCc1ccc2c(c1)CN(C1CCC(=O)NC1=O)C2=O (stereo not given)
250 to 251 | Cc1ccc(-c2cc3c(s2)CCCC(C(=O)O)=C3)cc1
133 to 142 | COC(=O)c1cccc(S(=O)(=O)N(C)C)c1CS(N)(=O)=O

melting point [°C] | SMILES
56 to 60 | CCC(=O)NCC1CCC(Nc2nc3c(s2)CCOc2ccccc2-3)CC1 (stereo not given)
182 | COc1cccc(OC)c1C1(O)C(=O)Nc2ccc(Cl)cc21 (stereo not given)
118 to 119 | CCOC(=O)c1cc(C)c2c(c1)c1ccccc1n2Cc1ccccc1
99 to 100 | FCCOc1cccc(CBr)c1OCCF
96 to 98 | CC(=O)C1=C(O)CC(C)OC1=O (stereo not given)
130 to 132 | COc1cc(CCNC(=O)[C@@H](NS(C)(=O)=O)C(C)C)ccc1OCC#Cc1ccccc1
50 | OCCc1ccc(COc2cccc(-c3c(-c4ccccc4)cnc4c(C(F)(F)F)cccc34)c2)cc1
109 to 110 | O=C(CO)Cc1ccc2ccccc2c1
224 to 225 | FC(F)(F)c1cc(Cl)c(-c2nc(Br)c[nH]2)c(Cl)c1
20 | CCCC(=CC(=O)O)CCC
167 to 168 | CCCn1nc2c(N)nc3c(c2c1CC(C)C)CCCC3
93 to 94.5 | COc1ccc(OCc2ccccc2)c(C(=O)OCc2ccccc2)c1
147 to 149 | CCOC(=O)c1cc(C)n(-c2ccc([N+](=O)[O-])cn2)c1-c1ccccc1
53 to 57 | CCCCCCCCCCCCSC(C)(C)C=NNC(=O)CCc1cc(C(C)(C)C)c(O)c(C(C)(C)C)c1
103 to 105 | Cc1oc(-c2ccccc2)nc1COc1ccc(C=O)cc1
85 to 87 | CCCCCN1C(=O)C2(COc3cc4c(cc32)OCO4)c2ccccc21 (stereo not given)
268 to 270 | O=C(O)c1cc2cccc(I)c2s1
112 to 114 | CCCCOc1cccc(C[C@H](NC(C)=O)[C@H](O)CNCc2cccc(CC)c2)c1
84 | CCCCOc1ccc(S(=O)(=O)C2(C(=O)O)CCN(CCCOc3ccccc3)CC2)cc1
110 to 130 | O=C(O)C1CCC(O)CC1 (stereo not given)
138 | CCOC(=O)c1cn(C2Cc3cc(F)ccc3C2=O)c(C(=O)OCC)n1 (stereo not given)
159 to 161 | CC(O)Cn1c(CO)nc(C(C)C)c1Sc1cc(Cl)cc(Cl)c1 (stereo not given)
228 to 231 | O=[N+]([O-])c1cc2ccc(C(Cl)(Cl)Cl)nc2c2nc(C(Cl)(Cl)Cl)ccc12

SMILES | melting point [°C]
c1csc(-c2ccc(-c3cn([C@H]4CN5CCC4CC5)nn3)cc2)c1 | 214
O=C1CN=C(c2ccc(O)cc2)c2cc(Cl)ccc2N1 | 271 to 272
O=C(Nc1nccs1)c1cn(CC2CCCC2)c2cc(Cl)ccc12 | 117 to 119
CCn1c(=O)n(O)c(=O)c2cc(F)c(N3CCN(C)CC3)cc21 | 132 to 134
C[C@@H]1C(=O)C[C@H]2C[C@@H]1OO[C@@]2(C)/C=C\c1ccc(Cl)cc1Cl | 137
